Source: patent publication US8399462B2, “JNK modulators” (Roche Palo Alto LLC, priority 2006, dated 2013)
Several values for one entry are separate records, joined by “and”; a condition that tells them apart may be missing. Equal values may be shown once.

melting point | Compound
232 to 233 °C | CS(=O)(=O)C[C@H](O)COc1cccc2c1cnn2-c1ccnc(N[C@H]2CC[C@H](C(=O)N3CCC(O)CC3)CC2)n1 (stereo in doubt) [Compound 234, (4-{4-[4-(2-hydroxy-3-methanesulfonyl-propoxy)-indazol-1-yl]-pyrimidin-2-ylamino}-cyclohexyl)-(4-hydroxy-piperidin-1-yl)-methanone]
230 to 231 °C | C[C@H]1CCCN1C(=O)[C@H]1CC[C@H](Nc2nccc(-n3ncc4c(OCCCS(N)(=O)=O)cccc43)n2)CC1 (stereo in doubt) [Compound 273, 3-(1-{2-[4-(2-methyl-pyrrolidine-1-carbonyl)-cyclohexylamino]-pyrimidin-4-yl}-1H-indazol-4-yloxy)-propane-1-sulfonic acid amide]
196 to 197 °C | CC(C#N)c1cccc2c1ccn2-c1ccnc(N[C@H]2CC[C@H](N(C)S(C)(=O)=O)CC2)n1 (stereo partly shown) [Compound 174, N-(4-{4-[4-(1-cyano-ethyl)-indol-1-yl]-pyrimidin-2-ylamino}-cyclohexyl)-N-methyl-methanesulfonamide]
187.5 to 188.5 °C | O=C([C@H]1CC[C@H](Nc2nccc(-n3ncc4c(OCCCO)cccc43)n2)CC1)N1CCCC1 [Compound 144, (4-{4-[4-(3-hydroxy-propoxy)-indazol-1-yl]-pyrimidin-2-ylamino}-cyclohexyl)-pyrrolidin-1-ylmethanone]
208.2 to 210.2 °C | OCCOc1cccc2c1cnn2-c1ccnc(N[C@H]2CC[C@H](O)CC2)n1 [Compound 90, 4-{4-[4-(2-hydroxy-ethoxy)-indazol-1-yl]-pyrimidin-2-ylamino}-cyclohexanol]
253.9 to 254.8 °C | C[C@H]1CC[C@H](Nc2nccc(-n3ncc4c([N+](=O)[O-])cccc43)n2)CC1 [Example 4, trans-(4-Methyl-cyclohexyl)-[4-(4-nitro-indazol-1-yl)-pyrimidin-2-yl]-amine]
224 to 225 °C | CS(=O)(=O)CCCOc1cccc2c(-c3ccnc(N[C@H]4CC[C@H](C(=O)N5CC[C@@H](O)C5)CC4)n3)noc12 [Compound 309, (3-hydroxy-pyrrolidin-1-yl)-(4-{4-[7-(3-methane-sulfonyl-propoxy)-benzo[d]isoxazol-3-yl]-pyrimidin-2-ylamino}-cyclohexyl)-methanone]
247 to 248 °C | CS(=O)(=O)N[C@H]1CC[C@H](Nc2nccc(-n3ccc4c(OCCCC#N)cccc43)n2)CC1 [Compound 202, N-(4-{4-[4-(3-cyano-propoxy)-indol-1-yl]-pyrimidin-2-ylamino}-cyclohexyl)-methane-sulfonamide]
175 to 176 °C | CS(=O)(=O)CCCOc1cccc2c1cnn2-c1ccnc(N[C@H]2CC[C@H](C(=O)N3CC[C@H](O)C3)CC2)n1 (stereo in doubt) [Compound 217, (3-hydroxy-pyrrolidin-1-yl)-(4-{4-[4-(3-methane-sulfonyl-propoxy)-indazol-1-yl]-pyrimidin-2-ylamino}-cyclohexyl)-methanone]
132 to 133 °C | CS(=O)(=O)CCCOc1cccc2c1ccn2-c1ccnc(N[C@H]2CC[C@H](C(=O)N3CCCC(C#N)C3)CC2)n1 (stereo partly shown) [Compound 264, 1-(4-{4-[4-(3-methane-sulfonyl-propoxy)-indol-1-yl]-pyrimidin-2-ylamino}-cyclohexane-carbonyl)-piperidine-3-carbonitrile]
193.3 to 194.6 °C | CCS(=O)(=O)Cc1cccc2c1ccn2-c1ccnc(N[C@H]2CC[C@H](O)CC2)n1 [Compound 108, 4-[4-(4-ethanesulfonyl-methyl-indol-1-yl)-pyrimidin-2-ylamino]-cyclohexanol]
250 to 251 °C | COC(=O)c1cccc2c1ccn2-c1ccnc(N[C@H]2CC[C@H](NS(=O)(=O)C3CC3)CC2)n1 [Compound 257, 1-[2-(4-cyclopropane-sulfonylamino-cyclo-hexylamino)-pyrimidin-4-yl]-1H-indole-4-carboxylic acid methyl ester]
> 300 °C | CS(=O)(=O)N[C@H]1CC[C@H](Nc2nccc(-n3ccc4c(C5(O)CCS(=O)(=O)CC5)cccc43)n2)CC1 [Compound 230, N-(4-{4-[4-(4-hydroxy-1,1-dioxohexahydro-thiopyran-4-yl)-indol-1-yl]-pyrimidin-2-yl-amino}-cyclohexyl)-methanesulfonamide]
206.9 to 207.6 °C | CC(C)(O)c1cccc2c1ccn2-c1ccnc(N[C@H]2CC[C@H](N3CCCS3(=O)=O)CC2)n1 [Compound 179, 2-(1-{2-[4-(1,1-dioxo-isothiazolidin-2yl)-cyclohexylamino}-pyrimidin-4-yl}-1H-indol-4-yl)-propan-2-ol]

More lines, now with the values behind:

Compound | melting point
COCCOc1cccc2c1ccn2-c1ccnc(N[C@H]2CC[C@H](C(=O)N3CCC(O)CC3)CC2)n1 [Compound 222, (4-hydroxy-piperidin-1-yl)-(4-{4-[4-(2-methoxy-ethoxy)-indol-1-yl]-pyrimidin-2-ylamino}-cyclohexyl)-methanone] | 134 to 135 °C
CS(=O)(=O)CCCOc1cccc2c1ccn2-c1ccnc(N[C@H]2CC[C@H](C(=O)N3CCC(CN)CC3)CC2)n1 [Compound 304, (4-aminomethyl-piperidin-1-yl)-(4-{4-[4-(3-methanesulfonyl-propoxy)-indol-1-yl]-pyrimidin-2-ylamino}-cyclohexyl)-methanone] | 124.1 to 126.1 °C and 124 to 126 °C
CS(=O)(=O)CCCOc1cccc2c(-c3ccnc(N[C@H]4CC[C@H](C(=O)N5CCC(O)CC5)CC4)n3)noc12 [Compound 307, (4-hydroxy-piperidin-1-yl)-(4-{4-[7-(3-methane-sulfonyl-propoxy)-benzo[d]isoxazol-3-yl]-pyrimidin-2-ylamino}-cyclohexyl)-methanone] | 186 to 187 °C
CS(=O)(=O)C[C@H](O)COc1cccc2c1cnn2-c1ccnc(N[C@H]2CC[C@H](O)CC2)n1 (stereo in doubt) [Compound 198, 4-{4-[4-(2-hydroxy-3-methanesulfonyl-propoxy)-indazol-1-yl]-pyrimidin-2-ylamino}-cyclohexanol] | 211 to 212 °C
CC(=O)N[C@H]1CC[C@H](Nc2nccc(-n3ncc4c(OC[C@@H](O)CO)cccc43)n2)CC1 (stereo in doubt) [Compound 154, N-(4-{4-[4-(2,3-di-hydroxy-propoxy)-indazol-1-yl]-pyrimidin-2-ylamino}-cyclohexyl)-acetamide] | 202 to 205 °C
CCCCOc1cccc2c1cnn2-c1ccnc(N[C@H]2CC[C@H](N(C)S(C)(=O)=O)CC2)n1 [Compound 190, N-{4-[4-(4-butoxy-indazol-1-yl)-pyrimidin-2-ylamino]-cyclohexyl}-N-methyl-methanesulfonamide] | 191 to 192 °C
C[C@@H](CO)COc1cccc2c1cnn2-c1ccnc(N[C@H]2CC[C@H](C(C)(C)O)CC2)n1 (stereo in doubt) [Compound 185, 3-(1-{2-[4-(2-hydroxy-prop-2-yl)-cyclohexyl-amino]-pyrimidin-4-yl}-1H-indazol-4-yloxy)-2-methylpropan-1-ol] | 211 to 212.5 °C
CN(C)S(=O)(=O)N[C@H]1CC[C@H](Nc2nccc(-n3ncc4c(OCCCO)cccc43)n2)CC1 [Compound 145, N-(N′,N′-dimethylsulfonamido) N-(4-{4-[4-(3-hydroxy-propoxy)-indazol-1-yl]-pyrimidin-2-ylamino}-cyclohexyl) amine] | 248 to 250 °C
C[S+]([O-])CCCOc1cccc2c1ccn2-c1ccnc(N[C@H]2CC[C@H](C(C)(C)O)CC2)n1 (stereo partly shown) [Compound 211, 2-(4-{4-[4-(3-methane-sulfinyl-propoxy)-indol-1-yl]-pyrimidin-2-ylamino}-cyclohexyl)-propan-2-ol] | 190.5 to 191 °C
O=C([C@H]1CC[C@H](Nc2nccc(-n3ncc4c(OC[C@@H](O)CO)cccc43)n2)CC1)N1CCCC1 (stereo in doubt) [Compound 153, (4-{4-[4-(2,3-dihydroxy-propoxy)-indazol-1-yl]-pyrimidin-2ylamino}-cyclohexyl)-pyrrolidin-1-ylmethanone] | 166 to 167 °C
CN([C@H]1CC[C@H](Nc2nccc(-n3ccc4c(CNS(C)(=O)=O)cccc43)n2)CC1)S(C)(=O)=O [Compound 188, N-(4-{4-[4-(methane-sulfonylamino-methyl)-indol-1-yl]-pyrimidin-2-ylamino}-cyclohexyl)-N-methyl-methane-sulfonamide] | 226.5 to 228 °C
CCOC(=O)[C@H]1CC[C@H](Nc2nccc(-n3ccc4c(OCCCS(N)(=O)=O)cccc43)n2)CC1 [Compound 318, 4-{4-[4-(3-sulfamoyl-propoxy)-indol-1-yl]-pyrimidin-2-ylamino}-cyclohexanecarboxylic acid ethyl ester] | 145 to 148 °C
CCCCOc1cccc2c1cnn2-c1ccnc(N[C@H]2CC[C@H](O)CC2)n1 [Compound 168, 4-[4-(4-butoxy-indazol-1-yl)-pyrimidin-2-yl-amino]-cyclohexanol] | 195 to 196 °C
CC(=O)N1CCN(c2cccc3c2ccn3-c2ccnc(N[C@H]3CC[C@H](NS(C)(=O)=O)CC3)n2)CC1 [Compound 267, N-(4-{4-[4-(4-acetyl-piperazin-1-yl)-indol-1-yl]-pyrimidin-2-yl-amino}-cyclohexyl)-methanesulfonamide] | 268 to 269 °C
C[C@@H]1CC[C@@H](C)N1C(=O)[C@H]1CC[C@H](Nc2nccc(-n3ncc4c(OCCCS(N)(=O)=O)cccc43)n2)CC1 (stereo in doubt) [Compound 271, 3-(1-{2-[4-(2,5-di-methyl-pyrrolidine-1-carbonyl)-cyclohexyl-amino]-pyrimidin-4-yl}-1H-indazol4-yloxy)-propane-1-sulfonic acid amide] | 230 to 231 °C
C[C@@H](CO)COc1cccc2c1cnn2-c1ccnc(N[C@H]2CC[C@H](N(C)S(C)(=O)=O)CC2)n1 (stereo in doubt) [Compound 186, N-(4-{4-[4-(3-hydroxy-2-methylpropoxy)-indazol-1-yl]-pyrimidin-2-ylamino}-cyclohexyl)-N-methyl-methanesulfonamide] | 222 to 224 °C
C[C@@H](CO)COc1cccc2c1cnn2-c1ccnc(N[C@H]2CC[C@H](C(=O)N3CCCC3)CC2)n1 (stereo in doubt) [Compound 171, (4-{4-[4-(3-hydroxy-2-methylpropoxy)-indazol-1-yl]-pyrimidin-2-ylamino}-cyclohexyl)-pyrrolidin-1-ylmethanone] | 199.4 to 200.4 °C
